Entries after “also recorded” stand apart in the source; their conditions may differ. Where two headings read alike, the source gives them in different places.
What was measured:
[1] = system: skin erythemal response induced by solar simulated UV on the dorsal skin of human subjects; test: Human study: reduction of skin erythemal response induced by solar simulated UV; assay type: in vivo; settings: for Reduction in Erythema vs Base: 4 mg/sq cm immediately after irradiation and 4-5 hours later, erythema read 16-24 hours later; for statistical difference from the Base and UV alone (MED): p<0.05
[2] = system: carrageenan induced hind paw edema; settings: cited from earlier work
[3] = cited from earlier work
[4] = 0.25% in BP 1988 Cetomacrogol Cream
[5] = 0.5% in BP 1988 Cetomacrogol Cream
[6] = 1% (1.0%) in BP 1988 Cetomacrogol Cream

SMILES	Reduction in Erythema vs Base [1, 4] [%]	anti-inflammatory effectiveness in words (compared to Indomethacin) ([1]; 0.25% product)	Reduction in Erythema vs Base [1, 5] [%]	anti-inflammatory effectiveness in words (compared to Indomethacin) ([1]; 1% (1.0%) product)	Reduction in Erythema vs Base [1, 6] [%]	also measured
CC1=CC=C(C(C)C)CC1 [α-terpinene]	58	good performance status				anti-inflammatory activity (inhibition of edema formation) ([2]; highest dose tested, 6 mg/paw): significant anti-inflammatory activity; anti-inflammatory activity (inhibition of edema formation) ([2]; lesser dosages than 6 mg/paw): relatively weak
CC(C)=CCC[C@](C)(O)[C@@H]1CC=C(C)CC1 [(−) alpha-Bisabolol, (−)-alpha-bisabolol, reference compound]	10		44			statistical difference from the Base and UV alone (MED) ([1]; 0.50% product): statistically different
CC1=CCC(O)(C(C)C)CC1 (stereo not drawn) [Terpinen-4-ol, terpinen-4-ol, reference compound]	7		45	good performance status		anti-inflammatory activity ([2]; dosages from 0.03 mg/paw to 6.0 mg/paw): significant anti-inflammatory activity; acute oral LD50 [3]: 1.3 g/kg
CC1=CCC(C(C)C)=CC1 [γ-terpinene]	52	high effective anti-inflammatory	29	statistically similar	32	statistical difference from the Base and UV alone (MED) ([1]; 0.25% product): statistically different; more erythema than Indomethacin ([1]; 1.0% product vs 1% Indomethacin): 98%; reducing UV erythema (MED) ([1]; 1.0% product vs UV alone (MED)): 39%; statistical difference from the Base and UV alone (MED) ([1]; 1.0% product): not significantly different from the Base; also recorded: significantly different from the MED; anti-inflammatory activity ([2]; dose not given): ineffective; also recorded: did not exhibit any significant anti-inflammatory activity
COc1ccc2c(c1)c(CC(=O)O)c(C)n2C(=O)c1ccc(Cl)cc1 [Indomethacin, reference compound]				most effective anti-inflammatory	66	

— US20060148907A1, “Topical antinflammatory preparations of y-terpinene” (priority 2002, published 2006)
